# Measured values as given in patent publication US8530622B2, “Proteasome-activating anti-aging peptides and compositions containing same” (ISP Investments Inc., priority 2009, dated 2013).
# Ends that are not written are not given here.
# Assays:
# [1] = target: T1, 20S proteasome (Homo sapiens, UniProt P28072+P28074+Q99436); test: Enzymatic activity of 20S proteasome on aged keratinocytes maintained in culture (AMC-labeled substrates); type: cell-based; settings: 15 days culture, 1% peptide
# T1 construct: After incubation of the cellular lysate with the synthetic substrate specific for the activity studied; endogenous in cells; host or cells: experimentally aged normal human keratinocytes (NHK) from human skin biopsies; activity measured in the cell lysate
# Description: (§1) Normal Human Keratinocyte (NHK), cells are isolated from human skin biopsies. These cells are maintained in culture in a special keratinocyte-SFM medium (Invitrogen) at 37° C. under a humidified atmosphere of 5% CO2. Aged NHK cells are obtained by performing a series of repeated sub-cultures. Briefly the cells are seeded in 75 cm^2 flasks, at low density and cultured from 5 to 10 days between 2 passages. The cells are treated or not treated by the active principle, by adding the active principle directly into the culture medium 3 times per week. The cells are then maintained under these conditions for 45 days.
# Experimentally aged keratinocytes maintained in culture for 15 days are treated with 1% of peptide SEQ ID No. 1. The enzymatic activities of 20S proteasome are then studied. In fact, 20S proteasome is the subunit responsible for enzymatic hydrolysis. Three enzymatic activities may be studied: Trypsin-like, chymotrypsin-like and peptidylglutamyl-peptide hydrolase (PGPH) activity. We are proposing to study these activities by a specific enzymatic assay of each activity.
# The aged keratinocytes are maintained in culture for 15 days. The cell treatment is carried out by adding a solution at 1% of peptide SEQ ID No. 1 directly into the medium, renewed 3 times per week for the time of the experiment.
# The assay of each activity was carried out by utilizing specific substrates labeled by a fluorescent compound 7-amido-4-methylcoumarin (AMC). After cleavage, the AMC excitation wavelength is 350 nm, the fluorescence is read at 440 nm. The fluorescence intensity is proportional to the quantity of fluorochrome obtained and consequently, this quantity is proportional to the quantity of hydrolyzed substrate.
# The synthetic peptide Boc-Leu-Arg-Arg-AMC is specific for trypsin activity. […]
# The cells are detached from the support in an extraction buffer. […] After incubation of the cellular lysate with the synthetic substrate specific for the activity studied, fluorescence is read with the Synergy spectrophotometer (BIOTEK, Vermont, USA) at 440 nm.
# [2] = system: experimentally aged keratinocytes; test: Antiaging effect: beta-galactosidase (X-gal) labeling of experimentally aged keratinocytes in culture; type: cell-based, human; settings: keratinocytes aged 20 days, 1% peptide 3 times per week
# Description: as §1
# A study of the antiaging effect of the active principle was carried out by evaluating the expression of the beta-galactosidase protein on experimentally aged keratinocytes in culture. In fact, beta-galactosidase activity is known to be present in senescent cells while galactosidase activity is not found in pre-senescent, quiescent or immortal cells.
# Keratinocytes experimentally aged in 8-well labteck are cultured and maintained for 20 days in the presence or not of 1% peptide of SEQ ID No. 1. The treatment is carried out 3 times per week by direct addition into the medium.
# Untreated cells are maintained in culture for the same experiment time and will be used as controls. […]
# [3] = system: volunteers; test: Clinical test: wrinkle and fine line measurement by QUANTIRIDE; type: in vivo, human; set-up: Depth of wrinkles, Measurement / Number of wrinkles, Measurement: unit not given here; settings: D 23-D 0, 2 mg/cm^2 twice a day, 12 volunteers
# Description: 12 volunteers aged from 29 to 56 years applied either a placebo or the peptidic active principle of sequence ID No. 1 twice a day, morning and night, at a dose of 2 mg/cm^2 for 24 days. A clinical evaluation of the results enabled several wrinkle and fine line parameters to be measured.
# The wrinkle and fine line measurement was carried out by QUANTIRIDE, which is an evaluation method that enables the number, length and depth of wrinkles to be measured by making a replica of the skin before and after treatment by using a silicone polymer.
substance,measurement,setting,value
Asp-Cys-Arg-NH2 [SEQ ID No. 1],"trypsin-like activity of 20S proteasome, increase",[1]; substrate Boc-Leu-Arg-Arg-AMC,155.3%
same,"chymotrypsin-like activity of 20S proteasome, increase",[1]; substrate Suc-Leu-Leu-Val-Try-AMC,130%
same,"peptidylglutamyl-peptide hydrolase activity of 20S proteasome, increase",[1]; substrate Z-Leu-Leu-Glu-AMC,144.6%
same,beta-galactosidase activity in treated cells compared to untreated cells,[2],strongly reduced
same,"Depth of wrinkles, Measurement",[3],−6.5557
same,"Length of wrinkles, Measurement",[3],−0.104 mm
same,"Number of wrinkles, Measurement",[3],−9.5833
same,"Depth of wrinkles, % of volunteers with improvement",[3]; listed as Active peptide,75%
same,"Length of wrinkles, % of volunteers with improvement",[3]; listed as Active peptide,83.3%
same,"Number of wrinkles, % of volunteers with improvement",[3]; listed as Active peptide,75%
same,"Depth of wrinkles, % of volunteers with improvement",[3]; listed as active principle,75%
same,"Length of wrinkles, % of volunteers with improvement",[3]; listed as active principle,83.3%
same,"Number of wrinkles, % of volunteers with improvement",[3]; listed as active principle,75%
